Laboratory results from ChEMBL document CHEMBL1817626, “The structure-activity relationship of urea derivatives as anti-tuberculosis agents” (Bioorg Med Chem, 2011).
Converted amounts (≈) assume the structure as drawn. The source made the active and inactive calls. The calls are words filed in the database; no cut-off is given here.

Key:
[1] = target: T1, Bifunctional epoxide hydrolase 2 (Homo sapiens, UniProt P34913); experiment: Inhibition of human recombinant soluble epoxide hydrolase using CMNPC as substrate after 10 mins by fluorescent assay
T1 sequence (P34913 whole entry): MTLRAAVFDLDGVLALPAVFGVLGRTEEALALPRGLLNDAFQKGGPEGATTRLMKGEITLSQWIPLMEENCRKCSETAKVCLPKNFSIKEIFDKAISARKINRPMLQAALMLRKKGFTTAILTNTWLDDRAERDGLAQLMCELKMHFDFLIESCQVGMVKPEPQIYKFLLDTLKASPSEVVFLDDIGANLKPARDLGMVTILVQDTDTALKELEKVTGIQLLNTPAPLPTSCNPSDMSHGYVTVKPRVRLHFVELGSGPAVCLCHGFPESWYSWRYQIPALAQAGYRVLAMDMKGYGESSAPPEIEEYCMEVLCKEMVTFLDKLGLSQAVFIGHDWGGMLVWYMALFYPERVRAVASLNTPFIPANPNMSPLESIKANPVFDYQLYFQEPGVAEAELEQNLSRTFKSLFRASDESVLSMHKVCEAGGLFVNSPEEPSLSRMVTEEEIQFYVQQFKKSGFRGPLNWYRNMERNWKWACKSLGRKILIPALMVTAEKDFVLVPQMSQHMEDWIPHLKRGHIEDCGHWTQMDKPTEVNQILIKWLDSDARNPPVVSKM

Vero = experiment: Cytotoxicity against african green monkey Vero cells after 72 hrs by MTT assay; format: cell-based; details: Chlorocebus sabaeus
Escherichia coli [2] = experiment: Antibacterial activity against Escherichia coli […] TolC; format: functional
[3] = test system: Mycolicibacterium smegmatis; experiment: microbe, parasite or virus in culture; details: str. MC2 155, 168 h
Klebsiella pneumoniae = experiment: Antibacterial activity against Klebsiella pneumoniae; format: functional
Escherichia coli [4] = experiment: Antibacterial activity against Escherichia coli K12; format: functional; details: K-12
[5] = target: T2, Hydrolase, alpha/beta hydrolase fold family (Mycobacterium tuberculosis) (UniProt O69638); experiment: Inhibition of Mycobacterium tuberculosis recombinant EphE expressed in Escherichia coli BL21 using CMNPC as substrate at 10 nM after 30 mins by fluorescent assay relative to control
T2 sequence (whole entry): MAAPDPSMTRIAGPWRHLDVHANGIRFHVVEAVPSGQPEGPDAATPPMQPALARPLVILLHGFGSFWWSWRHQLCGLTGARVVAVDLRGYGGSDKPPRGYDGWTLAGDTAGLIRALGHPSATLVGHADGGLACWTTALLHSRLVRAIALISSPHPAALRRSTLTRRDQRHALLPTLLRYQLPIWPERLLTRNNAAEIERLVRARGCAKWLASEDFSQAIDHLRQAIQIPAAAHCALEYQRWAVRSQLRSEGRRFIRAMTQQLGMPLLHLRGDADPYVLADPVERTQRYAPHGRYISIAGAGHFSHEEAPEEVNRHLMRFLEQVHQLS

Bacillus anthracis = experiment: microbe, parasite or virus in culture
[6] = target: T3, Epoxide hydrolase B (Mycobacterium tuberculosis) (UniProt P95276); experiment: Inhibition of Mycobacterium tuberculosis recombinant EphB expressed in Escherichia coli BL21 using CMNPC as substrate at 10 nM after 30 mins by fluorescent assay relative to control
T3 sequence (whole entry): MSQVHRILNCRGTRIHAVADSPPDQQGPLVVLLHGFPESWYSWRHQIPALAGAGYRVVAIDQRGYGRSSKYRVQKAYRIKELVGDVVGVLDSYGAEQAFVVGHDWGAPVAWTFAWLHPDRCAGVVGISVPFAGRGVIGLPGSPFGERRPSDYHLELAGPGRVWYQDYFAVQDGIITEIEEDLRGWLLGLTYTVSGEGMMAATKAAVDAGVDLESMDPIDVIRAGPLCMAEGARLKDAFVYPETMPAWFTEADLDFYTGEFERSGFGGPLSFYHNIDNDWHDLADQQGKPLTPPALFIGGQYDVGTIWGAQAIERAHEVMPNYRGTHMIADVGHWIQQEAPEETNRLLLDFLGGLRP

Staphylococcus aureus = experiment: Antibacterial activity against Staphylococcus aureus; format: functional
[7] = test system: Mycobacterium tuberculosis; experiment: microbe, parasite or virus in culture; details: H37Rv, 168 h
Enterococcus faecalis = experiment: Antibacterial activity against Enterococcus faecalis; format: functional
Enterococcus faecium = experiment: Antibacterial activity against Enterococcus faecium; format: functional
Pseudomonas aeruginosa = experiment: Antibacterial activity against Pseudomonas aeruginosa; format: functional
Epoxide hydrolase B = target: T4, Epoxide hydrolase B (Mycobacterium tuberculosis, UniProt P95276); experiment: Inhibition of Mycobacterium tuberculosis recombinant EphB expressed in Escherichia coli BL21 using CMNPC as substrate after 30 mins by fluorescent assay relative to control
T4 sequence (P95276 whole entry): T3 sequence (whole entry)

[8] = target: T5, Hydrolase, alpha/beta hydrolase fold family (Mycobacterium tuberculosis, UniProt O69638); experiment: Inhibition of Mycobacterium tuberculosis recombinant EphE expressed in Escherichia coli BL21 using CMNPC as substrate after 30 mins by fluorescent assay relative to control
T5 sequence (O69638 whole entry): T2 sequence (whole entry)

SMILES | IC50 [1] [nM] | IC50 (Vero) [µg/mL] | MIC (Escherichia coli [2]) [µg/mL] | MIC [3] [µg/mL] | MIC (Klebsiella pneumoniae) [µg/mL] | MIC (Escherichia coli [4]) [µg/mL] | inhibition [5] [%] | MIC (Bacillus anthracis) [µg/mL] | inhibition [6] | MIC (Staphylococcus aureus) [µg/mL] | MIC [7] [µg/mL] | MIC (Enterococcus faecalis) [µg/mL] | MIC (Enterococcus faecium) [µg/mL] | MIC (Pseudomonas aeruginosa) [µg/mL] | IC50 (Epoxide hydrolase B) [nM] | IC50 [8] [nM]
O=C(NC1CCCCC1)NC1C2CC3CC(C2)CC1C3 (stereo not given) | 0.4 | 25 (≈ 90.4 µM) | > 200 | > 200 | > 200 | > 200 | 70.2 | > 200 | 11.6% | > 200 | 10 (≈ 36.2 µM) | > 200 | > 200 | > 200 |  | 
CC(=O)C1CCC(NC(=O)Nc2ccc(OC(F)(F)F)cc2)CC1 (stereo not given) | 12 |  |  |  |  |  |  |  |  |  |  |  |  |  | 31600 | 
Cc1ccc(NC(=O)NC2CCCCCCC2)cc1Cl | 0.4 | > 400 | > 200 | 0.8 (≈ 2.71 µM) | > 200 | > 200 | 98.2 | > 200 | 83.6% | > 200 | 0.01 (≈ 0.0339 µM) | > 200 | > 200 | > 200 |  | 
CC(C)CCOc1ccc(NC(=S)Nc2ccc(OCCC(C)C)cc2)cc1 [TIOCARLIDE] |  |  | > 200 | > 200 | > 200 | > 200 |  | > 200 | inactive | > 200 | 2.5 (≈ 6.24 µM) | > 200 | > 200 | > 200 |  | 22
COCCCNC(=O)NC12CC3CC(CC(C3)C1)C2 | 386 | 20.4 (≈ 76.6 µM) | > 200 | 200 (≈ 751 µM) | > 200 | > 200 | 35.9 | > 200 | 23.7% | > 200 | 100 (≈ 375 µM) | > 200 | > 200 | > 200 |  | 
O=C(Nc1cccc(C(F)(F)F)c1F)NC1CCCCCCC1 | 0.4 | 25.3 (≈ 76.1 µM) | 25 (≈ 75.2 µM) | 0.4 (≈ 1.2 µM) | > 200 | > 200 | 56.3 | 3.12 (≈ 9.39 µM) | 17% | > 200 | 0.8 (≈ 2.41 µM) | > 200 | > 200 | > 200 |  | 
